Reference: patent US20160038565A1, “Methods of Mitigating Side Effects of Radiation Exposure and Chemotherapy” (Gencia Corporation, priority 2012, published 2016)

Legend:
[1] = tested on: orthotopic MiaPaca-2 xenografts; assay: Gemcitabine toxicity in orthotopic model of pancreatic cancer; assay type: in vivo, BALB/c nude mouse; conditions: gemcitabine 40 mg/kg every 3 days
Description: MiaPaCa-2 tumor cells was maintained in vitro as monolayer culture in DMEM medium supplemented with 10% fetal bovine serum, 2.5% horse serum, 100 U/ml penicillin and 100 μg/m1 streptomycin, and 2 mM L-glutamine at 37° C. in an atmosphere of 5% CO2 in air. The tumor cells were routinely subcultured twice weekly by trypsin-EDTA treatment. Cells in an exponential growth phase will be harvested and counted for tumor inoculation. Before orthotopic implantation, 5×10^6 MiaPaca-2 cells in 50 μl PBS mixed with 50 μl Matrigel were inoculated subcutaneously at the right flank of each BALB/c nude mouse. Upon subcutaneous tumor size reaching about 500 mm^3, tumors were collected for orthotopic implantation.
For orthotopic MiaPaca-2 xenografts, mice were anesthetized by intraperitoneal injection of pentobarbital sodium (50 mg/kg) before tumor inoculation. The abdominal skin was sterilized and laparotomy was performed to expose the pancreas. Each mouse was inoculated with a subcutaneous MiaPaca-2 tumor fragment (2-3 mm in diameter) in the subcapsular region of the pancreas for tumor development. The abdominal wall was closed using No. 6 suture and then sterilized with povidone iodine solution. The day of surgery was denoted as Day 0 (DO). […] The body weight of each mouse was measured on treatment days 1, 5, 8, 12, 15, 19 and 22. […]

[2] = Doxorubicin toxicity in naive mice (body weight, food intake, survival); assay type: in vivo, C57/BL6 mice; conditions: doxorubicin 25 mg/kg
Description: Two of four groups of five naive C57/BL6 mice were treated with doxorubicin (dox) at dose of 25 mg/kg, whereas the other two groups were left untreated. To assess PTD−TFAM's ability to ameliorate the toxic effects of Doxorubicin one group each of the dox-treated and untreated animals received PTD−TFAM at a dose of 0.3mg/kg on the same day as they were treated with Doxorubicin and every four days for two weeks thereafter (indicated with arrows in FIG. 1). Concurrently mice in the last two groups (one treated and one untreated with Doxorubicin) received vehicle alone (100 μl of 50% sorbitol, 2×PBS). To assess toxicity of the Doxorubicin treatment, mice were weighed once daily.
Each treatment group was housed together in cage separate from the other treatment group(s). The animals in each case share a food hopper. Food intake was evaluated on a group-by-group basis by weighing each group's food once daily. The difference in food weight between two days provides a rough estimate of the group's food intake during the period between two measurements (i.e, a day).

Row | Structure (SMILES) | mice dead by day 22 [1] [%] | deaths / survival ([2]; PTD-TFAM 0.3 mg/kg every four days, five mice per group) | food consumed by the group combined during days 6-8 ([2]; per cage of five mice)
1 | Nc1ccn([C@@H]2O[C@H](CO)[C@@H](O)C2(F)F)c(=O)n1 [gemcitabine] | 50 | – | –
2 | COc1cccc2c1C(=O)c1c(O)c3c(c(O)c1C2=O)C[C@@](O)(C(=O)CO)C[C@@H]3O[C@H]1C[C@H](N)[C@H](O)[C@H](C)O1 [dox, doxorubicin] | – | One of the mice in dox only treatment group began to gain weight, but died on day 14 | less than two grams
